Patent publication US10548829B2, “Oral care compositions and methods of use” (priority 2016, dated 2020)

How the values were obtained:
Streptococcus sobrinus = assay: Growth inhibition (OD610), single culture; format: cell-based
Method: (§1) Single species of Streptococcus gordonii (S. gordonii, S.g) strain V288 (ATCC #35105), Streptococcus sobrinus (S. sobrinus, S.$) strain SL1[CCM 6070, CNCTC 9/89] (ATCC #33478), or Aggregatibacter actinomycetemcomitans were analyzed. Also, a mixed culture containing Actinomyces viscosus (A. viscosus, A.v) strain (ATCC, #43146), Lactobacillus casei (L. casei, L.c) strain (ATCC #334), Streptococcus oralis (S. oralis, S. o) strain (ATCC #35037), Fusobacterium nucleatum (F. nucleatum, F. n) strain (ATCC #10953), and Veilonella parvula (V. parvula, V. p) strain (ATCC #17745) was also analyzed for growth inhibition/toxicity activity. Bacteria were cultured overnight in approximately 20 ml of BHI broth (BD, cat #237500) or maintained in a specialized complex modified BHI II medium in a continuous culture chemostat at 37° C. respectively. The following day, the OD610 were determined and solutions diluted to an OD610 of 0.2 or 0.1 respectively for the assay.
(§2) Triclosan (positive control) was prepared as a 10% stock in 100% EtOH and 3 fold serial dilutions were performed in 100% EtOH. An appropriate amount of the diluted samples was then transferred into a 96 well clear plate such that the resulting final concentration of the test samples ranged from either a 2 mM or 4 mM (highest concentration) to 0.0078 mM or 0.0156 mM (lowest concentration respectively) in 2% DMSO in 100 μl media per well. Triclosan (TCN) ranged from 0.01% to 1.67e-6% in 1% EtOH. For Zinc acetate, in order to mimic the 2:1 molar ratio (ligand:Zinc) in the Naringin:Zinc complex, the final concentration ranged from 0.7 mM to 0.0027 mM for samples with 2 mM as the highest concentration and 1.33 mM to […] for samples with 4 mM as the highest concentration in 2% DMSO. Next, 100 μl of bacterial culture at OD610 0.2 were introduced to the wells with the test samples. The wells were thoroughly mixed and incubated at 37° C. overnight. The plates were read using an Envision plate reader (PerkinElmer, Waltham, Mass.) at 610 nm.
(§3) The IC50 for the complex, Product 5, was determined for Streptococcus gordonii (S. gordonii), Streptococcus sobrinus (S. sobrinus), Aggregatibacter actinomycetemcomitans (A. actinomycetemcomitans), and also for the mixed bacterial culture. […] Triclosan (TCN) was included as a positive control for bacterial inhibition.
(§4) Further characterization was performed on planktonic oral microbes; Streptococcus sobrinus (Cariongenic—strain-SL1[CCM 6070, CNCTC 9/89] (ATCC cat. #33478), Streptococcus gordonii (Arginolytic—strain V288 (ATCC cat. #35105), Actinomyces viscosus) as well late colonizer (Gram −), pathogenic Aggregatibacter actinomycetemcomitans. All microbes were grown in their respective culture media: Streptococcus sobrinus and Streptococcus gordonii in BHI broth (BD, cat #237500), Aggregatibacter actinomycetemcomitans in BHI broth supplemented with 0.5% Yeast Extract (BD, cat #210941) and Actinomyces viscosus in Trypticase Soy Broth (BD, cat #211768) supplemented with 0.5% Yeast Extract (BD, cat #210941). Bacteria were cultured overnight in 37° C., 5% CO2 in approximately 20 ml of the appropriate culture broth. The following day, the OD610 was determined and solutions were diluted to 0.2 for the assay.
(§5) Triclosan (positive control) was prepared as a 10% stock in 100% EtOH and 3 fold serial dilutions were done in 100% EtOH. […] For Naringin+Zinc combination, while the highest total overall concentration was 2 mM, the exact concentration was Naringin (1.3 mM) and Zinc Acetate (0.7 mM) due to the compositions 2:1 molar ratio. For Zinc Acetate, in order to mimic the 2:1 ratio (ligand:Zinc) composition as in the complex, the final concentration ranged from 0.7 mM to 0.0027 mM in 2% DMSO.
(§6) A 100 μl aliquot of bacterial culture at OD610 0.2 were introduced to the wells with the test samples. The wells were thoroughly mixed and plates incubated overnight in a 37° C. incubator with or without 5% CO2 depending upon the bacterial species.

[1] = tested on: Aggregatibacter actinomycetemcomitans; assay: Growth inhibition (OD610), single culture; format: cell-based; conditions: A. actinomycetemcomitans
Method: as §1, §2, §3, §4, §5, §6

Streptococcus gordonii = assay: Growth inhibition (OD610), single culture; format: cell-based
Method: as §1, §2, §3, §4, §5, §6

S. gordonii/S. sobrinus = assay: Growth inhibition (OD610), co-culture; format: cell-based, S. gordonii and S. sobrinus
Method: as §4
(§7) Test samples (Naringin, Naringin:Zinc complex and Naringin+Zinc Acetate (combination)) were prepared as a 100 mM stock solution followed by 2 fold serial dilution in 100% DMSO. Triclosan (positive control) was prepared as a 10% stock in 100% EtOH and 3 fold serial dilutions were done in 100% EtOH. […]
(§8) After approximately 12-13 hours of treatment, the plate was read at 610 nm using an Envision plate reader (PerkinElmer, Waltham, Mass.). The % inhibition relative to control was determined as follows: […]

Actinomyces viscosus = assay: Growth inhibition (OD610), single culture; format: cell-based; conditions: A. viscosus
Method: as §4, §7, §8

S. sobrinus/A. viscosus = assay: Growth inhibition (OD610), co-culture; format: cell-based, S. sobrinus and A. viscosus
Method: as §4, §7, §8

[2] = tested on: planktonic oral bacterial species (S. sobrinus, S. gordonii, A. actinomycetemcomitans, A. viscosus, mixed cultures); assay: Growth inhibition, summary statements over the single, co- and mixed cultures tested; format: cell-based, oral bacteria; conditions: for inhibition of single species, co-cultures and mixed cultures (in words): concentrations of Tables 7-12
Method: as §1, §2, §3, §4, §5, §6

[3] = tested on: A. actinomycetemcomitans/A. viscosus; assay: Growth inhibition (OD610), co-culture; format: cell-based, A. actinomycetemcomitans and A. viscosus
Method: as §4, §7, §8

[4] = 0.5 mM (combination 0.5 mM total)

C[C@@H]1O[C@@H](O[C@H]2[C@H](Oc3cc(O)c4c(c3)O[C@H](c3ccc(O)cc3)CC4=O)O[C@H](CO)[C@@H](O)[C@@H]2O)[C@H](O)[C@H](O)[C@H]1O [Naringin]
inhibition at 500 µM (Streptococcus sobrinus; Streptococcus sobrinus, S. sobrinus, 0.5 mM (combination 0.325 mM + 0.175 mM, 0.5 mM total)): -2.64 ± 2.54%
inhibition at 500 µM ([1]; Aggregatibacter actinomycetemcomitans, 0.5 mM (combination 0.325 mM + 0.175 mM, 0.5 mM total)): 5.01 ± 1.69%
inhibition at 500 µM (Streptococcus gordonii; Streptococcus gordonii, S. gordonii, 0.5 mM (combination 0.325 mM + 0.175 mM, 0.5 mM total)): 0.96 ± 2.82%
inhibition at 500 µM (S. gordonii/S. sobrinus; [4]): -6.84 ± 1.19%
inhibition at 500 µM (Actinomyces viscosus; Actinomyces viscosus, 0.5 mM (combination 0.325 mM + 0.175 mM, 0.5 mM total)): -3.5 ± 4.1%
inhibition at 500 µM (S. sobrinus/A. viscosus; [4]): -3.79 ± 7.15%
antimicrobial effect on bacterial species tested (in words) ([2]; all concentrations tested, cultured alone or as co-cultures): did not show detectable antimicrobial effect
inhibition of single species, co-cultures and mixed cultures (in words) [2]: little to no detectable inhibition
inhibition at 500 µM [3, 4]: -0.03 ± 2.02%

CC(=O)[O-].CC(=O)[O-].[Zn+2] [Zinc Acetate alone, Zinc (II) Acetate]
% Inhibition (Streptococcus sobrinus; S. sobrinus, 0.175 mM): −1.05 ± 3.10%
IC50 (Streptococcus sobrinus; Streptococcus sobrinus, overnight at 37° C., read-out: IC50): 290 ± 40 µM
% Inhibition ([1]; 0.175 mM): 29.24 ± 0.42%
% Inhibition (Streptococcus gordonii; S. gordonii, 0.175 mM): 13.51 ± 10.18%
IC50 (Streptococcus gordonii; Streptococcus gordonii, overnight at 37° C., read-out: IC50): 300 ± 20 µM
% Inhibition (S. gordonii/S. sobrinus; 0.175 mM): 1.55 ± 0.24%
% Inhibition (Actinomyces viscosus; 0.175 mM): −1.84 ± 5.86%
% Inhibition (S. sobrinus/A. viscosus; 0.175 mM): 2.46 ± 6.58%
IC50 range over cultures tested, corresponding ppm ([2]; S. sobrinus, S. gordonii, A. actinomycetemcomitans and mixed chemostat cultures): 45.9-317.5 ppm
IC50 ([2]; S. sobrinus, S. gordonii, A. actinomycetemcomitans and mixed chemostat cultures, read-out: concentration that inhibited 50% of the bacterial growth (IC50), range over cultures tested): 250 to 1730 µM
inhibition of single species, co-cultures and mixed cultures (in words) [2]: little to no detectable inhibition
% Inhibition ([3]; 0.175 mM): 4.13 ± 6.89%
